Source: patent publication US8778871B2 (Takeda Pharmaceutical Company Limited, priority 2004, dated 2014)
Non-standard residues stand in square brackets, D forms with d. Residues, ends and D or L forms follow the SMILES beside them. Arg(Me) = CNC(=N)NCCC[C@H](N)C(=O)O; Abu = CC[C@H](N)C(=O)O; azaGly = NNC(=O)O

Key:
hOT7T175 [1] = target: T1, hOT7T175 (Homo sapiens, UniProt Q969F8, L364H); type: cell-based; conditions: hOT7T175/CHO, FLIPR, evaluation for 40 seconds after initiation of the reaction
T1 construct: expressed in transfected cells
T1 sequence (Q969F8 whole entry L364H): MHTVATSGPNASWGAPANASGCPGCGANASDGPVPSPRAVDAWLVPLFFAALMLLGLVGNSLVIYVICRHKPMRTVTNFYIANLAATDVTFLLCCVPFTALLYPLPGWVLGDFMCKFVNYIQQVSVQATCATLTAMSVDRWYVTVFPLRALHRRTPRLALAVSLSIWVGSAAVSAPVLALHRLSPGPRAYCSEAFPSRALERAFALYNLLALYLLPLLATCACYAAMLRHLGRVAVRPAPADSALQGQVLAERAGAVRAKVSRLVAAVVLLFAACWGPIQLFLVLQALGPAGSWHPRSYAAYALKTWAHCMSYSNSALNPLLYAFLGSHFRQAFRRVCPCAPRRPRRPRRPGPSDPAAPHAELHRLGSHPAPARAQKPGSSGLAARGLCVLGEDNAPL
Experimental: The intracellular Ca ion level-increasing activity was measured using FLIPR as in TEST EXAMPLE 2.

[2] = Action of reducing testosterone level in blood in mature male rat (1 mM peptide in 50% DMSO, ALZET osmotic pump); type: in vivo; conditions: 1 mM peptide in 50% DMSO aqueous solution, ALZET osmotic pump s.c., six days
Experimental: The peptide was encapsulated in five ALZET osmotic pump (Model 2001, 0.2 ml of volume, releasing rate 0.001 ml/hr, DURECT Corporation). The ALZET pumps encapsulated with the peptide solution were implanted to dorsal subcutaneous of five male CD (SD) IGS rat at nine weeks age (Charles River Japan, Inc.) anesthesized with ether for one pump to one rat. Separately, for negative controls, the ALZET osmotic pumps encapsulated with distilled water were implanted to five male CD (SD) IGS rat (Charles River Japan, Inc.) The rats were bred for six days under the normal conditions. After weighing, blood was collected by decapitation. To 1 ml of blood, 0.03 ml of aprotinin (Trasylol, Byer) solution containing 0.1 g/ml EDTA 2Na was added. The plasma was isolated by centrifugation at 1,800×g for 25 minutes and collected. The thus obtained plasma, 0.05 ml was effected by radioimmunoassay. (DPC Total Testosterone Kit, Diagnostic Products Corporation) to measure testosterone level in blood of each rat. The value beneath measuring limit of radioimmunoassay (0.04 ng/ml as concentration of plasma) was treated as zero. The mean values for testosterone level of five rats, to which the peptide was given, was calculated and the relative value (percentage) for the mean values of testosterone level of five rats, to which distilled watrer was given, was estimated.

hOT7T175 [3] = target: T1, hOT7T175; assay: Intracellular Ca ion level-increasing activity using FLIPR (180 seconds; specific activity to Metastin (1-54)); type: cell-based; conditions: hOT7T175/CHO, relative to Metastin (1-54) = 1

| Compound | Specific Act. (EC50/MS10 EC50) (hOT7T175 [1]) | Testosterone level in Blood [2] | Specific Act. (intracellular Ca ion level-increasing activity, specific activity to Metastin (1-54)) (hOT7T175 [3]) |
| --- | --- | --- | --- |
| 3-Pyridinepropionyl-D-Trp-Asn-Thr-Phe-AzaGly-Leu-Arg(Me)-Trp-NH2 ({3‑Pyridinepropionyl}-[dW]NTF[azaGly]L[Arg(Me)]W-NH2) [Compound No. 670] | 0.9 | 2% |  |
| 6-Aminocaproyl-D-Trp-Asn-Thr-Phe-AzaGly-Leu-Arg(Me)-Trp-NH2 ({6‑Aminocaproyl}-[dW]NTF[azaGly]L[Arg(Me)]W-NH2) [Compound No. 674] | 2 | 2% |  |
| CNC(=N)NCCC[C@H](NC(=O)[C@H](CC(C)C)NC(=O)CNC(=O)[C@H](Cc1ccccc1)NC(=O)[C@H](CO)NC(=O)[C@H](CC(N)=O)NC(=O)[C@H](Cc1c[nH]c2ccccc12)NC(=O)[C@H](CC(N)=O)NC(=O)[C@H](N)Cc1ccc(O)cc1)C(=O)N[C@@H](Cc1c[nH]c2ccccc12)C(N)=O [Compound No. 174] (H-[dY]NWNSFGL[Arg(Me)]W-NH2) | 2.3 |  | 10 |
| CC[C@H](NC(=O)CNC(=O)[C@H](Cc1ccccc1)NC(=O)[C@H](CO)NC(=O)[C@H](CC(N)=O)NC(=O)[C@H](Cc1c[nH]c2ccccc12)NC(=O)[C@H](CC(N)=O)NC(=O)[C@@H](N)Cc1ccc(O)cc1)C(=O)N[C@@H](CCCNC(=N)N)C(=O)N[C@@H](Cc1ccccc1)C(N)=O [Compound No. 187, Tyr-Asn-Trp-Asn-Ser-Phe-Gly-Abu-Arg-Phe-NH2] (H-YNWNSFG[Abu]RF-NH2) | 1.9 |  | 1 |
| CC[C@H](C)[C@H](NC(=O)[C@H](CC(N)=O)NC(=O)[C@H](N)Cc1ccc(O)cc1)C(=O)N[C@@H](CC(N)=O)C(=O)N[C@@H](CO)C(=O)N[C@@H](Cc1ccccc1)C(=O)NCC(=O)N[C@@H](CC(C)C)C(=O)N[C@@H](CCCNC(=N)NC)C(=O)N[C@@H](Cc1ccccc1)C(N)=O [Compound No. 206] (H-[dY]NINSFGL[Arg(Me)]F-NH2) | 4.8 |  | 10 |
| CNC(=N)NCCC[C@H](NC(=O)[C@H](CC(C)C)NC(=O)CNC(=O)[C@H](Cc1ccccc1)NC(=O)[C@H](CO)NC(=O)[C@@H](NC(=O)[C@H](Cc1c[nH]c2ccccc12)NC(=O)[C@H](CC(N)=O)NC(=O)[C@H](N)Cc1ccc(O)cc1)[C@@H](C)O)C(=O)N[C@@H](Cc1ccccc1)C(N)=O [Compound No. 208] (H-[dY]NWTSFGL[Arg(Me)]F-NH2) | 7.3 |  | 1 |
| CNC(=N)NCCC[C@H](NC(=O)[C@H](CC(C)C)NC(=O)CNC(=O)[C@H](Cc1ccccc1)NC(=O)[C@H](CO)NC(=O)[C@H](C)NC(=O)[C@H](Cc1c[nH]c2ccccc12)NC(=O)[C@H](CC(N)=O)NC(=O)[C@H](N)Cc1ccc(O)cc1)C(=O)N[C@@H](Cc1ccccc1)C(N)=O [Compound No. 210] (H-[dY]NWASFGL[Arg(Me)]F-NH2) | 9.3 |  | 1 |
| CNC(=N)NCCC[C@H](NC(=O)[C@H](CC(C)C)NC(=O)CNC(=O)[C@H](Cc1ccccc1)NC(=O)[C@@H](NC(=O)[C@H](CC(N)=O)NC(=O)[C@H](Cc1c[nH]c2ccccc12)NC(=O)[C@H](CC(N)=O)NC(=O)[C@H](N)Cc1ccc(O)cc1)[C@@H](C)O)C(=O)N[C@@H](Cc1ccccc1)C(N)=O [Compound No. 211] (H-[dY]NWNTFGL[Arg(Me)]F-NH2) | 1.3 |  | 10 |
| CNC(=N)NCCC[C@H](NC(=O)[C@H](CC(C)C)NC(=O)CNC(=O)[C@H](Cc1ccccc1)NC(=O)[C@H](C)NC(=O)[C@H](CC(N)=O)NC(=O)[C@H](Cc1c[nH]c2ccccc12)NC(=O)[C@H](CC(N)=O)NC(=O)[C@H](N)Cc1ccc(O)cc1)C(=O)N[C@@H](Cc1ccccc1)C(N)=O [Compound No. 212] (H-[dY]NWNAFGL[Arg(Me)]F-NH2) | 1.1 |  | 10 |
| CNC(=N)NCCC[C@H](NC(=O)[C@H](CC(C)C)NC(=O)CNC(=O)[C@H](Cc1ccccc1)NC(=O)[C@H](CO)NC(=O)[C@H](CC(N)=O)NC(=O)[C@H](Cc1c[nH]c2ccccc12)NC(=O)[C@H](N)Cc1ccc(O)cc1)C(=O)N[C@@H](Cc1ccccc1)C(N)=O [Compound No. 217] (H-[dY]WNSFGL[Arg(Me)]F-NH2) | 3.1 |  | 20 |
| CNC(=N)NCCC[C@H](NC(=O)[C@H](CC(C)C)NC(=O)NNC(=O)[C@H](Cc1ccccc1)NC(=O)[C@H](CO)NC(=O)[C@H](CC(N)=O)NC(=O)[C@H](Cc1c[nH]c2ccccc12)NC(=O)[C@H](N)Cc1ccc(O)cc1)C(=O)N[C@@H](Cc1ccccc1)C(N)=O [Compound No. 222, D-Tyr-Trp-Asn-Ser-Phe-AzaGly-Leu-Arg(Me)-Phe-NH2] (H-[dY]WNSF[azaGly]L[Arg(Me)]F-NH2) | 2.7 |  | 10 |
| CNC(=N)NCCC[C@H](NC(=O)[C@H](CC(C)C)NC(=O)NNC(=O)[C@H](Cc1ccccc1)NC(=O)[C@H](CO)NC(=O)[C@H](CC(N)=O)NC(=O)[C@H](Cc1c[nH]c2ccccc12)NC(=O)[C@H](CC(N)=O)NC(=O)[C@H](N)Cc1ccc(O)cc1)C(=O)N[C@@H](Cc1ccccc1)C(N)=O [Compound No. 232, D-Tyr-Asn-Trp-Asn-Ser-Phe-AzaGly-Leu-Arg(Me)-Phe-NH2] | 3.9 |  | 3 |
| CNC(=N)NCCC[C@H](NC(=O)[C@H](CC(C)C)NC(=O)NNC(=O)[C@H](Cc1ccccc1)NC(=O)[C@H](CO)NC(=O)[C@H](CC(N)=O)NC(=O)[C@@H](NC(=O)[C@H](N)Cc1ccc(O)cc1)[C@@H](C)O)C(=O)N[C@@H](Cc1ccccc1)C(N)=O [Compound No. 241, D-Tyr-Thr-Asn-Ser-Phe-AzaGly-Leu-Arg(Me)-Phe-NH2] (H-[dY]TNSF[azaGly]L[Arg(Me)]F-NH2) | 5.3 |  | 1 |
| CNC(=N)NCCC[C@H](NC(=O)[C@H](CC(C)C)NC(=O)NNC(=O)[C@H](Cc1ccccc1)NC(=O)[C@H](CO)NC(=O)[C@H](CC(N)=O)NC(=O)[C@@H](Cc1c[nH]c2ccccc12)NC(=O)[C@H](N)Cc1ccc(O)cc1)C(=O)N[C@@H](Cc1ccccc1)C(N)=O [Compound No. 242, D-Tyr-D-Trp-Asn-Ser-Phe-AzaGly-Leu-Arg(Me)-Phe-NH2] (H-[dY][dW]NSF[azaGly]L[Arg(Me)]F-NH2) | 1.4 |  | 2 |
| Ac-D-Trp-Asn-Thr-Phe-AzaGly-Leu-Arg(Me)-Trp-NH2 (Ac-[dW]NTF[azaGly]L[Arg(Me)]W-NH2; SMILES CNC(=N)NCCC[C@H](NC(=O)[C@H](CC(C)C)NC(=O)NNC(=O)[C@H](Cc1ccccc1)NC(=O)[C@@H](NC(=O)[C@H](CC(N)=O)NC(=O)[C@@H](Cc1c[nH]c2ccccc12)NC(C)=O)[C@@H](C)O)C(=O)N[C@@H](Cc1c[nH]c2ccccc12)C(N)=O) [Compound No. 666] | 1.1 | 2% |  |
| Ac-D-Trp-D-Trp-Asn-Thr-Phe-AzaGly-Leu-Arg(Me)-Trp-NH2 (Ac-[dW][dW]NTF[azaGly]L[Arg(Me)]W-NH2; SMILES CNC(=N)NCCC[C@H](NC(=O)[C@H](CC(C)C)NC(=O)NNC(=O)[C@H](Cc1ccccc1)NC(=O)[C@@H](NC(=O)[C@H](CC(N)=O)NC(=O)[C@@H](Cc1c[nH]c2ccccc12)NC(=O)[C@@H](Cc1c[nH]c2ccccc12)NC(C)=O)[C@@H](C)O)C(=O)N[C@@H](Cc1c[nH]c2ccccc12)C(N)=O) [Compound No. 663] | 0.8 | 2% |  |
| Ac-D-Tyr-D-Pya(2)-Asn-Thr-Phe-AzaGly-Leu-Arg(Me)-Trp-NH2 [Compound No. 658] | 0.4 | 2% |  |
| Ac-D-Tyr-D-Pya(3)-Asn-Thr-Phe-AzaGly-Leu-Arg(Me)-Trp-NH2 [Compound No. 660] | 1.1 | 2% |  |
| Ac-D-Tyr-D-Pya(4)-Asn-Thr-Phe(4F)-AzaGly-Leu-Arg(Me)-Trp-NH2 [Compound No. 638] | 1.7 | 2% |  |
| Ac-D-Tyr-D-Trp-Asn-Thr-Phe-AzaGly-Leu-Arg(Me2)sym-Trp-NH2 [Compound No. 608] | 2.2 | 2% |  |
| H-YNWNSFGLRY-NH2 [Compound No. 109] | 2.6 |  | 20 |
